Measurements: US20030108523A1, “Cancer treatment system” (priority 2001, published 2003)

Tests used:
[1] = in vivo; cited from earlier work
NF-κB = conditions: U937 cells; cited from earlier work
Mesothelioma cells = test: Cell-growth inhibition assay (MTT colorimetric assay); format: cell-based, human
Protocol: Various mesothelioma cell lines were established from specimens obtained from pleural effusions of patients with established pleural malignant mesothelioma. Cell cultures were performed according to standard methods. Briefly, pleural effusions were centrifuged and the cell pellets were transferred into 25 cm^2 tissue culture flasks. The medium consisted of RPMI 1640 supplemented with 10% fetal bovine serum, 2 mM glutamine, 10 mM HEPES buffer, 50 U/ml penicillin, and 50 μg/ml streptomycin. Cultures were maintained in humidified atmosphere of 5% CO2 at 37° C. and examined daily. When cells were confluent, a trypsin-EDTA mixture in PBS was used to detach the cells, and the cultures were used between passages 5 and 20.
Mesothelioma cells were counted and dispensed into eight, 96-well tissue-culture plates (Costar, Cambridge, Mass.) at a concentration of 2,000 cells/well in 100 μl of culture medium. […] Culture plates were then incubated for different times between 0 and 168 hours and cell proliferation was measured every 24 hours. […]
Cell proliferation was determined by a colorimetric assay using MTT [3(4,5-dimethylthiazol-2yl)2,5-diphenyltetrazolium bromide], a tetrazolium salt which is reduced to a colored formazan product by reducing enzymes present only in metabolically active cells. (See Alley et al., “Feasibility of drug screening with panel of human tumor cell lines using a microculture tetrazolium assay” Cancer Res. 48: 589-601, 1988.) Thus, metabolically active cells such as cells undergoing division will produce more formazan, which can be detected by a spectrophotometer.
Briefly, twenty-five μls of MTT solution were added to culture wells containing cells as described above. […] Absorption of each well was measured using a spectrophotometer at 540 nm. The effect of α-MSH on cell proliferation was determined as percent OD difference in α-MSH treated wells relative to control wells. […]

| Substance | Potency in reducing fever relative to the parent peptide α-MSH [1] | NF-κB activation induced by TNF-α, endotoxin, ceramide and okadaic acid (NF-κB) | Dose dependence of the inhibitory effect on mesothelioma cell proliferation (Mesothelioma cells; 10^-6 to 10^-4 M, FIG. 2) | Concentration at which the inhibitory effect was most significant and consistent (Mesothelioma cells; FIG. 2) | Cell proliferation of treated versus control wells, early intervals (Mesothelioma cells; intervals between 24 and 72 h) |
| --- | --- | --- | --- | --- | --- |
| [Nle4-D-Phe7]-α-MSH | approximately ten times more potent | – | – | – | – |
| SYSMEHFRWGKPV (listed as Homo sapiens) [α-MSH, thirteen amino-acid peptide produced by post-translational processing of propiomelanocortin] | – | downregulates NF-κB activation | dose-dependent | 10^−4 M | no difference in cell proliferation |
